Test results as given in patent US20090123536A1, “Oral Pharmaceutical Form of Losartan” (Flamel Technologies, S.A., priority 2005, published 2009).
Converted amounts (≈) assume the structure as drawn.

Experiment: Solubility of losartan as a function of pH
Type: physicochemical
Settings: water
Excerpt: It is thus conceived that for losartan, whose solubility depends greatly on the gastric pH (cf. table below), the solubilization, and thus ultimately the plasmatic concentration profile, is subject to great variation from one individual to another and, for the same individual, from one day to another.

CCCCc1nc(Cl)c(CO)n1Cc1ccc(-c2ccccc2-c2nn[nH]n2)cc1 [losartan, {2-butyl-4-chloro-1-[4-[2-(1H-tetrazol-5-yl)phenyl]benzyl]-1H-imidazol-5-yl}methanol]
solubility (aqueous buffer, pH 3.0, 37° C.): 100 µg/mL (≈ 0.236 mM)
solubility (aqueous buffer, pH 4.5, 37° C.): 120 µg/mL (≈ 0.284 mM)
solubility (aqueous buffer, pH 5.0, 37° C.): 300 µg/mL (≈ 0.709 mM)
solubility (aqueous buffer, pH 6.0, 37° C.): 1200 µg/mL (≈ 2.84 mM)
solubility (aqueous buffer, pH 6.8, 37° C.): 10000 µg/mL (≈ 23.6 mM)
solubility (aqueous buffer, pH 8.5, 37° C.): > 550000 µg/mL
solubility (simulated gastric fluid, pH 1.4, 37° C.): 1000 µg/mL (≈ 2.36 mM)
solubility (simulated gastric fluid, pH 2.0, 37° C.): 600 µg/mL (≈ 1.42 mM)
